Test results reported in ChEMBL document CHEMBL1133494, “Inhibitors of bacterial tyrosyl tRNA synthetase: synthesis of four stereoisomeric analogues of the natural product SB-219383” (Bioorg Med Chem Lett, 2000).

Experiments:
[1] = target: T1, Tyrosine--tRNA ligase, cytoplasmic (Homo sapiens) (UniProt P54577); assay: Percentage inhibitory activity of compound against tyrosyl tRNA synthetase from mammalian cells was determined at 3 uM
T1 sequence (whole entry): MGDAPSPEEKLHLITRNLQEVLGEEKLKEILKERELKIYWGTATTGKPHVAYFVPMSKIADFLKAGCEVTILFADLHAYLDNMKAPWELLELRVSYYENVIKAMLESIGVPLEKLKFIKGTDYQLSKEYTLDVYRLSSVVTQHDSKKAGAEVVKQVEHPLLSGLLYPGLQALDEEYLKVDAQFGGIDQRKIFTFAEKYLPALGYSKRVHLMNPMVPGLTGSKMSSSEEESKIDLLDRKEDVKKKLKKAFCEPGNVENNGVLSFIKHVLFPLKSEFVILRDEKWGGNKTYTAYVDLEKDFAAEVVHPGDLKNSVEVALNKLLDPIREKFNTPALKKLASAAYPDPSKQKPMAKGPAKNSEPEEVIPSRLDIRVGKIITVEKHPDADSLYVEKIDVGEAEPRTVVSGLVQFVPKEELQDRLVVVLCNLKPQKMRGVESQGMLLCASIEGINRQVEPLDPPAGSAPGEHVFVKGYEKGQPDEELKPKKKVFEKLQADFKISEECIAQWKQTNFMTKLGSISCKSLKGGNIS

[2] = tested on: Tyrosyl-tRNA synthetase (Staphylococcus aureus); assay: Inhibitory activity of compound against tyrosyl tRNA synthetase from Staphylococcus aureus was determined up to 3 uM; IA means Inactive

## N[C@@H](Cc1ccc(O)cc1)C(=O)N[C@H](C(=O)O)[C@H]1[C@H](O)[C@@H](O)[C@@H](O)CN1O
[1]
  inhibition: 11%

## N[C@@H](Cc1ccc(O)cc1)C(=O)N[C@@H](C(=O)O)[C@@H]1[C@@H](O)[C@H](O)[C@H](O)CN1O
[2]
  IC50: Not Active

## N[C@@H](Cc1ccc(O)cc1)C(=O)N[C@H](C(=O)O)[C@@H]1[C@@H](O)[C@H](O)[C@H](O)CN1O
[2]
  IC50: Not Active
